The experiment deals with bovine cardiac myofibrils (full-length cardiac myosin ATPase in the native sarcomere) (Bos taurus (Bovine), UniProt Q9BE39). In words: Skinned bovine cardiac myofibril ATPase assay (PK/LDH-coupled). The following applies: Ca2+ activating to 75% of maximal rate; for CDMF75 IC15: concentration giving 15% inhibition; for IC50: read-out: CDMF75 IC50. The experiment is classed as biochemical. Put shortly:
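Triton-skinned bovine left-ventricle myofibrils (1 mg/mL) in PM 12 buffer (12 mM PIPES, 2 mM MgCl2, pH 6.8) with 50 μM ATP, 0.6 mM EGTA and CaCl2 set for 50% or 75% activation. Steady-state ATPase inhibition followed by PK/LDH-coupled NADH oxidation at 340 nm.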

Sequence of bovine cardiac myofibrils (full-length cardiac myosin ATPase in the native sarcomere) (Q9BE39 whole entry): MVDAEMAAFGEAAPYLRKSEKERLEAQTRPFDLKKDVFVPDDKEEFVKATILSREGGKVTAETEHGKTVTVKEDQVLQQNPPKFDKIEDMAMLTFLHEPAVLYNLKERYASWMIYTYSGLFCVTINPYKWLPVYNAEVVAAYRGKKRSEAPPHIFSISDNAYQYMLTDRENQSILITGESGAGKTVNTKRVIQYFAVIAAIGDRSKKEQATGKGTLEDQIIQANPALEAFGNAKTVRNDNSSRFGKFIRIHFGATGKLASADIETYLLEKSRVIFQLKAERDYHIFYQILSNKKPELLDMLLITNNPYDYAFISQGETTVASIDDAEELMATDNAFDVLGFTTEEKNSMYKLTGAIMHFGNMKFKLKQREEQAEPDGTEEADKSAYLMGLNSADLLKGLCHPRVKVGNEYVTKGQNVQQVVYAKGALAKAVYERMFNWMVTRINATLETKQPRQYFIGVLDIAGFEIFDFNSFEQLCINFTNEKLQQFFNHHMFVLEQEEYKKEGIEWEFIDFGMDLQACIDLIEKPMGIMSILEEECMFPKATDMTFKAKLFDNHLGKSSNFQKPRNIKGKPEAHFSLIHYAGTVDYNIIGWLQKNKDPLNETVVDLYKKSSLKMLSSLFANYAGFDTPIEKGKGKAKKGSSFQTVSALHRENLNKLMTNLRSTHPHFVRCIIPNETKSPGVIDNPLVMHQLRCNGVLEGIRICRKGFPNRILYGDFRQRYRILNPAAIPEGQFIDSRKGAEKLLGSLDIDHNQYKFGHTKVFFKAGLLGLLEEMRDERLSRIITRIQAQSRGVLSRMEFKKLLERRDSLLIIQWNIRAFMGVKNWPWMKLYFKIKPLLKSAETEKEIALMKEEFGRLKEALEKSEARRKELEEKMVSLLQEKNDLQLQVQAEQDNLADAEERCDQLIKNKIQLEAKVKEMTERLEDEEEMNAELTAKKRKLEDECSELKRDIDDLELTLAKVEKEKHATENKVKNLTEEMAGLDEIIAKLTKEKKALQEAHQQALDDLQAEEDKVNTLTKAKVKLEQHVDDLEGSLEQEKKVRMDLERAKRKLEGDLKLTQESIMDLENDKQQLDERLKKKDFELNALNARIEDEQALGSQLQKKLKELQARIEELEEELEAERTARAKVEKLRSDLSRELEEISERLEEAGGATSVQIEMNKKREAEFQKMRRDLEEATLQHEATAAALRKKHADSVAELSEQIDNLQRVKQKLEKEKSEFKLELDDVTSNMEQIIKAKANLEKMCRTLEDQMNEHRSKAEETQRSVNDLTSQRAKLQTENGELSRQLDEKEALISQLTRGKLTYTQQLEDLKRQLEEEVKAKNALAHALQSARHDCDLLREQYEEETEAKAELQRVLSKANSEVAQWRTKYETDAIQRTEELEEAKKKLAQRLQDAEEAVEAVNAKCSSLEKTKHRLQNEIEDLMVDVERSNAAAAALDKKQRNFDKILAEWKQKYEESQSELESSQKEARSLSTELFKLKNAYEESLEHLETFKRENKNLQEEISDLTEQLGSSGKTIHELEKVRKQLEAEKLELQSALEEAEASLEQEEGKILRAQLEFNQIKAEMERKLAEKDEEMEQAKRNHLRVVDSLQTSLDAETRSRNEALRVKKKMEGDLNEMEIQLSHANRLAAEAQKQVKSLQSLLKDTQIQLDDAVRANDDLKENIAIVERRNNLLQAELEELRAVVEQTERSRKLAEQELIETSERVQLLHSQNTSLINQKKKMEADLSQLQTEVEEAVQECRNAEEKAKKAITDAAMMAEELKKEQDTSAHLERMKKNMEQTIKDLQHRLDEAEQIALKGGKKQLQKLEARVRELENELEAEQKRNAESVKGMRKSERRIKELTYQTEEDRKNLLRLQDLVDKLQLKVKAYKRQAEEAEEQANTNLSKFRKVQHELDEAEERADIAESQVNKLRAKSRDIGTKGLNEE
Sequence of bovine cardiac myofibrils (full-length cardiac myosin ATPase in the native sarcomere) (P85100 whole entry partner): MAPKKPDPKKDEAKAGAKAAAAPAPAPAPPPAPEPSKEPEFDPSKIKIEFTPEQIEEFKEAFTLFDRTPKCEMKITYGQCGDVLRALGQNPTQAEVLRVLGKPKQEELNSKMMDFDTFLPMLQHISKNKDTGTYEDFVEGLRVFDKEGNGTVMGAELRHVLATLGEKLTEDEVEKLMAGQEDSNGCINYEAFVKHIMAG
Sequence of bovine cardiac myofibrils (full-length cardiac myosin ATPase in the native sarcomere) (Q3SZE5 whole entry partner): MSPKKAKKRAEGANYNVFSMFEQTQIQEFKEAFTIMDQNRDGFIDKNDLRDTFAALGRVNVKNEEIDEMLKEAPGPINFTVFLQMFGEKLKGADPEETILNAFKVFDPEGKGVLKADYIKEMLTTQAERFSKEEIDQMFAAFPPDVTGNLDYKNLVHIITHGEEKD

On to `COc1cc(C(=O)N[C@@H]2CCc3cc(-c4noc(C(F)F)n4)ccc32)on1` [Compound 680, (R)-N-(5-(5-(difluoromethyl)-1,2,4-oxadiazol-3-yl)-2,3-dihydro-1H-inden-1-yl)-3-methoxyisoxazole-5-carboxamide], for which the “CDMF75 IC15” value was 0.5 µM and the concentration for half-maximal inhibition (IC50) (usually the midpoint of a concentration-inhibition curve) is 1.7 µM.

Consider `Nc1cc(C(=O)NC2CCc3cc(-c4noc(C(F)F)n4)ccc32)ccn1` (centres unmarked) [Compound 99, 2-amino-N-(5-(5-(difluoromethyl)-1,2,4-oxadiazol-3-yl)-2,3-dihydro-1H-inden-1-yl)isonicotinamide], for which the “CDMF75 IC15” value was 0.6 µM and the IC50 stood at 2.6 µM.

In the case of `C=Cc1cccc(C(=O)N[C@@H]2CCc3cc(-c4noc(CC)n4)ccc32)c1` [Compound 657, (R)-N-(5-(5-ethyl-1,2,4-oxadiazol-3-yl)-2,3-dihydro-1H-inden-1-yl)-3-vinylbenzamide], the “CDMF75 IC15” value was 0.3 µM and the half-inhibitory concentration (IC50) came out at 0.7 µM.

As to `CNC(=O)N[C@@H]1CCc2cc(-c3noc(C(F)F)n3)ccc21` [Compound 295, (R)-1-(5-(5-(difluoromethyl)-1,2,4-oxadiazol-3-yl)-2,3-dihydro-1H-inden-1-yl)-3-methylurea], the “CDMF75 IC15” value was 4.9 µM and the IC50 was over 39.2 µM.

Take `Cc1nc(-c2ccc3c(c2)OC[C@H]3NC(=O)c2cc(CO)ccn2)no1` [Compound 718, (S)-4-(hydroxymethyl)-N-(6-(5-methyl-1,2,4-oxadiazol-3-yl)-2,3-dihydrobenzofuran-3-yl)picolinamide]: the “CDMF75 IC15” value was 1.1 µM and the IC50 worked out at 5.2 µM.

As for `Cc1cc(C(=O)NC2CCc3cc(-c4cc(C(F)F)no4)ccc32)ccn1` (centres unmarked) [Compound 170, N-(5-(3-(difluoromethyl)isoxazol-5-yl)-2,3-dihydro-1H-inden-1-yl)-2-methylisonicotinamide], the “CDMF75 IC15” value was determined as 3.8 µM and the IC50 is 15.9 µM.

`CCc1nc(-c2ccc3c(c2)CC[C@H]3NC(=O)c2ccnn2C)no1` [Compound 240, (R)-N-(5-(5-ethyl-1,2,4-oxadiazol-3-yl)-2,3-dihydro-1H-inden-1-yl)-1-methyl-1H-pyrazole-5-carboxamide]: the “CDMF75 IC15” value amounted to 0.3 µM and the concentration for half-maximal inhibition (IC50) came to 0.8 µM.

Consider `CCc1nc(-c2ccc3c(c2)CC[C@H]3NC(=O)c2cnn(C3COC3)c2)no1` [Compound 470, (R)-N-(5-(5-ethyl-1,2,4-oxadiazol-3-yl)-2,3-dihydro-1H-inden-1-yl)-1-(oxetan-3-yl)-1H-pyrazole-4-carboxamide], for which the “CDMF75 IC15” value was 4.4 µM and the half-inhibitory concentration (IC50) came out at 16.8 µM.

As for `Cc1ccc(-c2ccc3c(c2)CC[C@H]3NC(=O)c2ccnn2C)cn1` [Compound 375, (R)-1-methyl-N-(5-(6-methylpyridin-3-yl)-2,3-dihydro-1H-inden-1-yl)-1H-pyrazole-5-carboxamide], the “CDMF75 IC15” value came to 10.6 µM and the half-maximal inhibitory concentration (IC50) was over 39.2 µM.

In the case of `COc1cc(C(=O)N[C@@H]2CCc3cc(-c4noc(C(F)F)n4)ccc32)ccn1` [Compound 684, (R)-N-(5-(5-(difluoromethyl)-1,2,4-oxadiazol-3-yl)-2,3-dihydro-1H-inden-1-yl)-2-methoxyisonicotinamide], the “CDMF75 IC15” value was 1.1 µM and the 50% inhibitory concentration (IC50) came out at 5 µM.

`CCc1nc(-c2ccc3c(c2)OC[C@H]3NC(=O)c2cnc(C)o2)no1` [Compound 464, (S)-N-(6-(5-ethyl-1,2,4-oxadiazol-3-yl)-2,3-dihydrobenzofuran-3-yl)-2-methyloxazole-5-carboxamide]: the “CDMF75 IC15” value is 0.4 µM and the 50% inhibitory concentration (IC50) turned out to be 1.4 µM.

For the compound `Cc1noc(C(=O)NC2CCc3cc(-c4noc(C(F)F)n4)ccc32)n1` (centres unmarked) [Compound 127, N-(5-(5-(difluoromethyl)-1,2,4-oxadiazol-3-yl)-2,3-dihydro-1H-inden-1-yl)-3-methyl-1,2,4-oxadiazole-5-carboxamide], the “CDMF75 IC15” value came out at 1.7 µM and the IC50 was 7.7 µM.

As to `O=C(N[C@@H]1CCc2cc(-c3noc(C(F)F)n3)ccc21)c1cnn(CCO)c1` [Compound 528, (R)-N-(5-(5-(difluoromethyl)-1,2,4-oxadiazol-3-yl)-2,3-dihydro-1H-inden-1-yl)-1-(2-hydroxyethyl)-1H-pyrazole-4-carboxamide], the “CDMF75 IC15” value was 1.1 µM and the IC50 amounted to 4.9 µM.

With `CCc1nc(-c2ccc3c(c2)CC[C@H]3NC(=O)c2nn[nH]n2)no1` [Compound 502, (R)-N-(5-(5-ethyl-1,2,4-oxadiazol-3-yl)-2,3-dihydro-1H-inden-1-yl)-2H-tetrazole-5-carboxamide], the “CDMF75 IC15” value came to 2.0 µM and the IC50 is 8 µM.

Turning to `Cc1cc(-c2ccc3c(c2)CC[C@H]3NC(=O)c2cnc(C)o2)no1` [Compound 416, (R)-2-methyl-N-(5-(5-methylisoxazol-3-yl)-2,3-dihydro-1H-inden-1-yl)oxazole-5-carboxamide], the “CDMF75 IC15” value is 1.2 µM and the IC50 was determined as 4.2 µM.

As to `CCc1nc(-c2ccc3c(c2)CC[C@H]3NC(=O)c2cn[nH]c2OC)no1` [Compound 486, (R)-N-(5-(5-ethyl-1,2,4-oxadiazol-3-yl)-2,3-dihydro-1H-inden-1-yl)-5-methoxy-1H-pyrazole-4-carboxamide], the “CDMF75 IC15” value was determined as 4.1 µM and the IC50 was determined as 24.3 µM.

Regarding `COCCc1nc(-c2ccc3c(c2)CC[C@H]3NC(=O)c2cnn(C)c2)no1` [Compound 546, N-{(1R)-5-[5-(2-methoxyethyl)(1,2,4-oxadiazol-3-yl)]indanyl}(1-methylpyrazol-4-yl)carboxamide], the “CDMF75 IC15” value is 15.5 µM and the concentration for half-maximal inhibition (IC50) was found to be 39.2 µM.

With `CCc1nc(-c2ccc3c(c2)CC[C@H]3NC(=O)c2cn[nH]c2)no1` [Compound 469, (R)-N-(5-(5-ethyl-1,2,4-oxadiazol-3-yl)-2,3-dihydro-1H-inden-1-yl)-1H-pyrazole-4-carboxamide], the “CDMF75 IC15” value amounted to 0.3 µM and the IC50 is 1.1 µM.

Regarding `Cc1noc(-c2ccc3c(c2)CC[C@H]3NC(=O)c2cccc(CO)c2)n1` [Compound 706, (R)-3-(hydroxymethyl)-N-(5-(3-methyl-1,2,4-oxadiazol-5-yl)-2,3-dihydro-1H-inden-1-yl)benzamide], the “CDMF75 IC15” value amounted to 0.6 µM and the IC50 worked out at 2.5 µM.

Turning to `Cc1nc(-c2ccc3c(c2)CCC3NC(=O)c2oncc2C)no1` (centres unmarked) [Compound 88, 4-methyl-N-(5-(5-methyl-1,2,4-oxadiazol-3-yl)-2,3-dihydro-1H-inden-1-yl)isoxazole-5-carboxamide], the “CDMF75 IC15” value amounted to 0.7 µM and the concentration for half-maximal inhibition (IC50) worked out at 2.5 µM.

As to `COCc1nc(-c2ccc3c(c2)CC[C@H]3NC(=O)c2cnn(C)c2)no1` [Compound 178, (R)-N-(5-(5-(methoxymethyl)-1,2,4-oxadiazol-3-yl)-2,3-dihydro-1H-inden-1-yl)-1-methyl-1H-pyrazole-4-carboxamide], the “CDMF75 IC15” value was found to be 1.9 µM and the IC50 stood at 6.8 µM.

Consider `COCc1nc(-c2ccc3c(c2)CC[C@H]3NC(=O)c2cccc([C@H](C)O)c2)no1` [Compound 728, 3-((S)-1-hydroxyethyl)-N-((R)-5-(5-(methoxymethyl)-1,2,4-oxadiazol-3-yl)-2,3-dihydro-1H-inden-1-yl)benzamide], for which the “CDMF75 IC15” value is 0.8 µM and the IC50 is 3.8 µM.

The values are drawn from patent publication US12065436B2, “Cardiac sarcomere inhibitors” (Cytokinetics, Inc., priority 2018, dated 2024).
